Test results: patent US9855270B2, “Methods and compositions for modulating estrogen receptor mutants” (priority 2014, dated 2018)
Like-named read-outs stand apart in the source and are kept apart here.

Legend:
[1] = system: MCF-7 cells stably expressing EF1 HA-ER-α Y537N; assay: cells; format: cell-based; design: Percent inhibition compared to vehicle: concentration or dose not given beside the values; conditions: for Percent inhibition compared to vehicle: 5-Day Incubation; for EC50: Homo sapiens, MCF7, EF1 HA-ER-α Y537N, read-out: Potency (EC50; nM)
Source text: (§1) MCF-7 Mutant ER-α Stable Cell Line Generation: MCF-7 cells stably expressing wild-type or ER-α mutants were generated by subcloning ESR1 wild-type and mutant cDNAs containing an amino terminal hemagglutinin tag into pCDH-EF1-MCS-(PGK-Puro) (referred to as EF1 HA-ER-α) and pCDH-UbC-MCS-EF1-Hygro (referred to as UbC HA-ER-α) (System Biosciences). The resulting plasmids, in addition to an empty vector negative control, were subsequently cotransfected into HEK293T cells with the pPACKH1 packaging plasmid mix (System Biosciences) according to the manufacturer's protocol. Four days post transfection lentiviral particles were purified from the cell medium, tiered and stored at −80° C. MCF-7 cells were transduced with the purified viral particles and stable cell lines were selected by growth in RPMI containing 10% FBS plus 1 μG/mL puromycin or 200 μG/mL hygromycin for pCDH-EF1-MCS-(PGK-Puro) and pCDH-UbC-MCS-EF1-Hygro, respectively.
(§2) MCF-7 Stable Cell Line Viability: MCF-7 cells were enumerated with a hemacytometer adjusted to a concentration of 40,000 cells per mL in Phenol Free RPMI containing 10% CSS with NEAA and Sodium Pyruvate. 16 microliters of the cell suspension was added to each well of a 384 well tissue culture treated white clear bottom polystyrene plate (Corning) using a Matrix 16 channel electronic pipette. The cells were incubated overnight to allow the cells to adhere. The following day, 16 microliters of Phenol Free RPMI containing 10% CSS with NEAA and Sodium Pyruvate was added to the wells of one plate, followed by 16 μL of CellTiter-Glo (Promega, Madison Wis.) luminescent cell viability reagent using a Matrix 16 channel electronic pipette. […] The “average” of the relative luminescence units (RLUs) of the wells are considered to be the baseline value at time=zero. In addition, a 10 point, 1:5 serial dilution in DMSO (Sigma-Aldrich) was performed using Matrix 12 channel electronic pipette, including DMSO only as […]. 4 μL of each dilution was then added to 196 μL of RPMI containing 10% CSS with NEAA and Sodium Pyruvate. 16 μL of medium containing compound was added to the cells at a final concentration ranging from 10 μM to 5 pM. Compound dilution in media and subsequent addition to cells were carried out using Matrix 12 channel electronic pipettes. After 5 day compound exposure, 16 μL of CellTiter-Glo (Promega, Madison Wis.) luminescent cell viability reagent was added to the cells using a Matrix 16 channel electronic pipette. CellTiter-Glo added to 32 μL of medium without cells was used to obtain a background value. […] The relative luminescence units (RLUs) of each well were measured, and relative proliferation (fold) of each sample was determined as follows: (RLU sample−RLU background)/(RLU at T=0)=relative proliferation
(§3) The UbC promoter is reported by the manufacturer (System Biosciences) to express low to moderate RNA levels while the EF1 promoter expresses high levels (System Biosciences).

[2] = system: MCF-7 cells stably expressing EF1 HA-ER-α L536P; assay: cells; format: cell-based; design: Percent inhibition compared to vehicle: concentration or dose not given beside the values; conditions: for Percent inhibition compared to vehicle / Efficacy (Emax): EF1 HA-ER-α L536P; for Percent inhibition compared to vehicle: 5-Day Incubation; for Efficacy (Emax): Day 5 relative to Day 0; for EC50: Homo sapiens, MCF7, EF1 HA-ER-α L536P, read-out: Potency (EC50; nM)
Source text: as §1, §2, §3

[3] = system: MCF-7 cells stably expressing UbC HA-ER-α L536P; assay: cells; format: cell-based; design: Percent inhibition compared to vehicle: concentration or dose not given beside the values; conditions: for EC50: Homo sapiens
Source text: as §1, §2, §3

[4] = system: MCF-7 cells (negative control); assay: MCF-7 Stable Cell Line Viability (UbC HA-ER-α series); format: cell-based; design: Percent inhibition compared to vehicle: concentration or dose not given beside the values; conditions: for EC50: Homo sapiens, MCF7, Receptor None (MCF-7 negative control); for Percent inhibition compared to vehicle / Efficacy (Emax): Receptor None (MCF-7 negative control)
Source text: as §1, §2, §3

[5] = system: MCF-7 cells stably expressing UbC HA-ER-α wild-type; assay: as above; format: cell-based; design: Percent inhibition compared to vehicle: concentration or dose not given beside the values; conditions: for EC50: Homo sapiens, MCF7, UbC HA-ER-α Wild-type, read-out: Potency (EC50; nM); for Percent inhibition compared to vehicle / Efficacy (Emax): UbC HA-ER-α Wild-type; for Percent inhibition compared to vehicle: 5-Day Incubation; for Efficacy (Emax): Day 5 relative to Day 0
Source text: as §1, §2, §3

[6] = system: MCF-7 cells stably expressing ER-α mutants; conditions: 5 day proliferation assays; depending on the mutation and assay format
Method: Potency and efficacy of ERM 1-3 were measured in vitro in ER dependent transcriptional reporter assays and viability assays of MCF-7 cells stably expressing ER-α mutants.
as §1
MCF-7 Stable Cell Line Viability: MCF-7 cells were enumerated with a hemacytometer adjusted to a concentration of 40,000 cells per mL in Phenol Free RPMI containing 10% CSS with NEAA and Sodium Pyruvate. 16 microliters of the cell suspension was added to each well of a 384 well tissue culture treated white clear bottom polystyrene plate (Corning) using a Matrix 16 channel electronic pipette. The cells were incubated overnight to allow the cells to adhere. […] The “average” of the relative luminescence units (RLUs) of the wells are considered to be the baseline value at time=zero. […] The relative luminescence units (RLUs) of each well were measured, and relative proliferation (fold) of each sample was determined as follows: (RLU sample−RLU background)/(RLU at T=0)=relative proliferation
Potency and efficacy of ERM 4-23 were measured in vitro in ER dependent transcriptional reporter assays and viability assays of MCF-7 cells stably expressing ER-α mutants.

[7] = system: MCF-7 cells transduced with an empty EF1 lentiviral vector (negative control); assay: MCF-7 Stable Cell Line Viability (EF1 HA-ER-α series); format: cell-based; design: Percent inhibition compared to vehicle: concentration or dose not given beside the values; conditions: for EC50: Homo sapiens, MCF7, Receptor None (empty EF1 lentiviral vector), read-out: Potency (EC50; nM); for Percent inhibition compared to vehicle / Efficacy (Emax): Receptor None (empty EF1 lentiviral vector); for Percent inhibition compared to vehicle: 5-Day Incubation; for Efficacy (Emax): Day 5 relative to Day 0
Source text: as §1, §2, §3

[8] = system: MCF-7 cells stably expressing EF1 HA-ER-α wild-type; assay: as above; format: cell-based; design: Percent inhibition compared to vehicle: concentration or dose not given beside the values; conditions: for Percent inhibition compared to vehicle / Efficacy (Emax): EF1 HA-ER-α Wild-type; for Percent inhibition compared to vehicle: 5-Day Incubation; for Efficacy (Emax): Day 5 relative to Day 0; for EC50: Homo sapiens, MCF7, EF1 HA-ER-α Wild-type, read-out: Potency (EC50; nM)
Source text: as §1, §2, §3

[9] = Agonist Mode, −E2, 5-Day Incubation
[10] = Agonist Mode, −E2, Day 5 relative to Day 0
[11] = Antagonist Mode, +E2, 5-Day Incubation
[12] = Antagonist Mode, +E2, Day 5 relative to Day 0

## CC/C(=C(/c1ccc(/C=C/C(=O)O)cc1)c1ccc2[nH]ncc2c1)c1ccc(F)cc1Cl [Compound 1-3, (E)-3-(4-((E)-2-(2-chloro-4-fluorophenyl)-1-(1H-indazol-5-yl)but-1-en-1-yl)phenyl)acrylic acid]
[1]; EF1 HA-ER-α Y537N, Agonist Mode, −E2
  Percent inhibition compared to vehicle: 48%
[1]; EF1 HA-ER-α Y537N, Agonist Mode, −E2, Day 5 relative to Day 0
  Efficacy (Emax): 3.11 ± 0.28
[1]; EF1 HA-ER-α Y537N, Antagonist Mode, +E2
  Percent inhibition compared to vehicle: 44%
[1]; Agonist Mode, −E2
  EC50: 97.3 ± 46.9 nM
[1]; Antagonist Mode, +E2
  EC50: 125 ± 35.5 nM
[2]; Agonist Mode, −E2
  Percent inhibition compared to vehicle: 57%
  Efficacy (Emax): 3.54 ± 0.45
  EC50: 18.2 ± 3.29 nM
[2]; Antagonist Mode, +E2
  Percent inhibition compared to vehicle: 59%
  Efficacy (Emax): 3.74 ± 0.53
  EC50: 41.9 ± 8.25 nM
[3]; [9]
  Percent inhibition compared to vehicle: 50%
[3]; [10]
  Efficacy (Emax): 1.58 ± 0.16
[3]; [11]
  Percent inhibition compared to vehicle: 72%
[3]; [12]
  Efficacy (Emax): 1.69 ± 0.10
[3]; MCF7, Agonist Mode, −E2, read-out: Potency (EC50; nM)
  EC50: 0.713 ± 0.487 nM
[3]; MCF7, read-out: Potency (EC50; nM), Antagonist Mode, +E2
  EC50: 7.37 ± 3.93 nM
[4]; Agonist Mode, −E2, read-out: Potency (EC50; nM)
  EC50: 0.603 ± 0.74 nM
[4]; Antagonist Mode, +E2, read-out: Potency (EC50; nM)
  EC50: 4.84 ± 4.42 nM
[4]; [9]
  Percent inhibition compared to vehicle: 30%
[4]; [10]
  Efficacy (Emax): 1.23 ± 0.88
[4]; [11]
  Percent inhibition compared to vehicle: 70%
[4]; [12]
  Efficacy (Emax): 0.97 ± 0.01
[5]; Agonist Mode, −E2
  EC50: 0.58 ± 0.386 nM
  Percent inhibition compared to vehicle: 37%
  Efficacy (Emax): 1.17 ± 0.17
[5]; Antagonist Mode, +E2
  EC50: 5.5 ± 6.28 nM
  Percent inhibition compared to vehicle: 76%
  Efficacy (Emax): 1.16 ± 0.03
[6]
  reduced the number of viable cells (compared to DMSO control): 44%-78%
[7]; Agonist Mode, −E2
  EC50: 0.828 ± 0.347 nM
  Percent inhibition compared to vehicle: 54%
  Efficacy (Emax): 1.03 ± 0.14
[7]; Antagonist Mode, +E2
  EC50: 9.27 ± 3.93 nM
  Percent inhibition compared to vehicle: 75%
  Efficacy (Emax): 1.01 ± 0.12
[8]; Agonist Mode, −E2
  Percent inhibition compared to vehicle: 48%
  Efficacy (Emax): 2.97 ± 0.50
  EC50: 2.84 ± 1.36 nM
[8]; Antagonist Mode, +E2
  Percent inhibition compared to vehicle: 59%
  Efficacy (Emax): 2.78 ± 0.26
  EC50: 28 ± 10.3 nM
